Measurements from US8192962B2, “Processes for detecting toxic substances” (Daikin Industries, Ltd., priority 2001, dated 2012).

Test system: Transport facilitation protein genes
Assay: DNA chip mRNA expression in yeast, transport facilitation protein genes (Table 5)
Format: cell-based, Saccharomyces cerevisiae S288C
Experimental: Yeast (Saccharomyces cerevisiae S288C (α SUC2mal mel gap2 CUP1)) were incubated at 25° C. on YPD medium (yeast extract 1%, polypepton 2%, glucose 2%). One of toxic chemical substances was added to the cells at logarithmic growth phase, and the cells were further incubated for two hours. Cells were cultured without any chemical substance in the same condition, and were used as control. Concentrations of the chemical substances were defined to inhibit the growth of the yeast but not lead to death.
After completion of the incubation, the culture was centrifuged to collect the cells. To the cells, sodium acetate buffer (50 mM sodium acetate, 10 mM EDTA, 1% SDS) was added, and the mixture was shaken at 65° C. for five minutes, followed by returning to room temperature, and obtaining the supernatant, of which the procedures were repeated two times. To the supernatant, ½ amount of a solution of phenol/chloroform was added, and the mixture was centrifuged to give a supernatant, which was added with an equal amount of chloroform, and the mixture was centrifuged to give a supernatant. To the supernatant, an equal amount of isopropanol containing 0.3 M sodium acetate was added, and the mixture was allowed to stand at room temperature for 30 minutes, after which the mixture was centrifuged to give a sediment of the whole RNAs. Seventy % ethanol was added to the sediment, and the mixture was again centrifuged to give a sediment, which was then dried and dissolved in water. mRNA was isolated from the whole RNAs as followings. In view of the fact that a poly A chain is attached to the 3′ terminus of mRNA, a polynucleotide having a poly T structure which was immobilized on the surface of latex beads was used to trap the mRNA, and then the mRNA was washed and eluted with spine column (Oligotex-dT30<Super>mRNA Purification Kit, Takara). Reverse transcription of the mRNA was conducted with a reverse transcriptase (Super Script II Reverse Transcriptase; catalogue No. 18064-014, GibcoBRL) using fluorescence-labeled nucleotides to give cDNAs that were introduced with Cy3-dUTP or Cy5-dUTP during the reverse transcription.
The labeled cDNAs were dissolved in TE buffer (10mM Tris-HCl/1 mM EDTA, pH8.0), and the solution was dropped on the DNA chip containing the whole genes of yeast (DNA Chip Research Inc. Japan) so that the cDNAs were hybridized on the DNA chip at 65° C. for over 12 hours. The fluoresces intensity of the DNA chip was read with a scanner, and the ratio relative to the fluorescence intensity resulting from the absence of chemical substance was estimated as the following, which is shown in Tables 1 to 9: […]

Measured: The level of expressed mRNA in the presence of chemical substance/The level of expressed mRNA in the absence of chemical substance

CCCCCCCCCCCCc1ccc(S(=O)(=O)[O-])cc1.[Na+] [(17), sodium dodecylbenzosulfonate]
1.5: yeast gene YDL198C | yeast gene YIL056W | yeast gene YOR130C
0.6: yeast gene YCL025C | yeast gene YGL255W | yeast gene YJL212C
2.8: yeast gene YGR224W | yeast gene YGR281W
2.6: yeast gene YNL259C
1.3: yeast gene YBR295W | yeast gene YDR038C | yeast gene YDR345C | yeast gene YGL104C | yeast gene YHR175W | yeast gene YMR011W | yeast gene YNR072W | yeast gene YOR332W | yeast gene YPL134C
1.2: yeast gene YBR207W | yeast gene YDR387C | yeast gene YER053C | yeast gene YHL047C | yeast gene YIL088C | yeast gene YJR106W | yeast gene YLL028W | yeast gene YNL055C | yeast gene YPL271W
1.8: yeast gene YBR052C
0.4: yeast gene YPL036W
1.1: yeast gene YBR068C | yeast gene YBR132C | yeast gene YDL210W | yeast gene YDR039C | yeast gene YDR298C | yeast gene YDR343C | yeast gene YFL041W | yeast gene YGL008C | yeast gene YHL035C | yeast gene YJL034W | yeast gene YJR121W | yeast gene YLR348C
1.4: yeast gene YCL038C | yeast gene YCR037C | yeast gene YDR086C | yeast gene YGL167C | yeast gene YHL040C | yeast gene YHR094C | yeast gene YOL119C
1.6: yeast gene YDR497C | yeast gene YJL219W | yeast gene YOR035C | yeast gene YPR192W
0.7: yeast gene YBL099W | yeast gene YEL063C | yeast gene YEL065W | yeast gene YGR055W | yeast gene YGR065C | yeast gene YGR138C | yeast gene YLR081W
1.0: yeast gene YBL030C | yeast gene YBR293W | yeast gene YBR294W | yeast gene YDL245C | yeast gene YDR342C | yeast gene YEL027W | yeast gene YJR077C | yeast gene YKL016C | yeast gene YKL146W | yeast gene YPR194C
1.7: yeast gene YCR098C | yeast gene YFL054C | yeast gene YGR197C
0.9: yeast gene YBR298C | yeast gene YCR024C-A | yeast gene YDL128W | yeast gene YDR270W | yeast gene YGR082W | yeast gene YGR260W | yeast gene YHR026W | yeast gene YHR092C | yeast gene YKR039W | yeast gene YLR295C | yeast gene YLR378C | yeast gene YOL156W | yeast gene YOR348C
0.8: yeast gene YBR127C | yeast gene YFL011W | yeast gene YFL050C | yeast gene YGR096W | yeast gene YGR191W | yeast gene YIL006W | yeast gene YIL022W | yeast gene YKR067W | yeast gene YMR162C | yeast gene YMR203W | yeast gene YOL163W | yeast gene YOR316C
2.4: yeast gene YGL006W
3.2: yeast gene YOR273C
2.5: yeast gene YOR153W
